Earlier results as cited in patent US20120093797A1, “COMBINED USE OF CREATINE PHOSPHATE AND CREATINE PHOSPHOKINASE FOR TREATMENT OF ARTERIOSCLEROSIS” (ARTCELL INVEST LTD., priority 2009, published 2012).

Half-life of CP: 4 to 7 min
Compound: CN(CC(=O)O)C(=N)NP(=O)(O)O [CP, 2-[(amino-phosphonoimino-methyl)-methyl-amino]acetic acid]
